Test system: Swiss mice
Test: Fat tolerance test (ftt) in mice
Type: in vivo
Conditions: 3 mg/kg, p.o.; olive oil load 10 mL/kg 30 min after treatment; AUC0-4h, vehicle group as 100%
Procedure: Swiss mice of age 4-5 weeks and body weight between 25-30 g were selected for study. After fasting for about 16 h, the animals were divided into three groups based on plasma triglyceride level with same mean and variation. Animals were administered with either vehicle [(1% tween 80 in 0.5% carboxy methylcellulose (CMC)]) or with compounds of the present invention (3 mg/kg, p.o.). Compounds of the present invention were prepared as suspension in 0.5% carboxy methylcellulose (CMC) with 1% tween 80. Olive oil (fat) load (10 mL/kg, p.o.) was given, 30 min after the treatment. Blood samples were collected at 1, 2, 3 and 4 h after the fat (olive oil) load. Plasma was separated and triglyceride level was measured using commercially available kits (diasys, Germany). Percentage reduction in area under curve (AUC0-4h) of the test compound was calculated by taking AUC0-4h of the vehicle group as 100%.

SMILES	% Reduction (Plasma triglyceride)
CC(C)[C@@H](C(=O)O)N1Cc2ccc(-c3ccc(NC(=O)c4ccc(Oc5ccccc5)cc4)cc3)cc2C1=O [Example 150, (S)-3-Methyl-2-(1-oxo-6-(4-(4-phenoxybenzamido)phenyl)isoindolin-2-yl)butanoic acid]	++ (>50% Reduction)
CC(C)[C@@H](C(=O)O)N1Cc2ccc(-c3ccc(NC(=O)c4ccc(-c5ccccc5)cc4)cn3)cc2C1=O [Example 408, (S)-2-(6-(5-Biphenyl-4-ylcarboxamidopyridin-2-yl)-1-oxoisoindolin-2-yl)-3-methylbutanoic acid]	++ (>50% Reduction)
CC(C)[C@@H](C(=O)O)N1Cc2ccc(-c3ccc(NC(=O)c4ccc(C(C)(C)C)cc4)cc3)cc2C1=O [Example 116, (S)-2-(6-(4-(4-tert-Butylbenzamido)phenyl)-1-oxoisoindolin-2-yl)-3-methyl butanoic acid]	++ (>50% Reduction)

Biological target: T1, hDGAT1 (Homo sapiens, UniProt O75907)
T1 sequence (O75907 1-488): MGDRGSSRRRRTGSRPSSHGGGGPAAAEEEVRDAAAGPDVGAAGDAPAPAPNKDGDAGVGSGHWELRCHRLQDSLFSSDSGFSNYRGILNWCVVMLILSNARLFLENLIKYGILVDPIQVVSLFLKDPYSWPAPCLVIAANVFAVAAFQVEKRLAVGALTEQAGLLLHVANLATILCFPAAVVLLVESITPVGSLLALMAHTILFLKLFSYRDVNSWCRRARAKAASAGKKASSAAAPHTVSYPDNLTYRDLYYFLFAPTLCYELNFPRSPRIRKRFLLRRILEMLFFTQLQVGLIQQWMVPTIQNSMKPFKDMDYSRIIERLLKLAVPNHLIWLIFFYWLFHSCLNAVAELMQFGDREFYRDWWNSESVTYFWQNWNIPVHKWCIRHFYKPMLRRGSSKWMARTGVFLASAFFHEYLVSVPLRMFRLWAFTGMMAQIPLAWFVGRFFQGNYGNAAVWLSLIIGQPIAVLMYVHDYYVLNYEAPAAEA
Test: In-vitro DGAT1 assay (14C oleoyl CoA, hDGAT1 microsomes from Sf9 cells)
Conditions: at 1 μM

SMILES	% Inhibition of hDGAT1
CC(C)[C@@H](C(=O)O)N1Cc2ccc(-c3ccc(NC(=O)c4ccc(-c5ccccc5)cc4)cn3)cc2C1=O [Example 408, (S)-2-(6-(5-Biphenyl-4-ylcarboxamidopyridin-2-yl)-1-oxoisoindolin-2-yl)-3-methylbutanoic acid]	++ (>50% Inhibition)
Cc1ccc(NC(=O)Nc2ccc(-c3ccc4c(c3)C(=O)N([C@H](C(=O)O)C(C)C)C4)cc2)cc1 [Example 24]	+ (10-50% Inhibition)
CC(C)[C@H](C(=O)O)N1Cc2ccc(-c3ccc(NC(=O)c4ccc(-c5ccccc5)cc4)cc3)cc2C1=O [Example 541, (R)-2-(6-(4-([1,1′-Biphenyl]-4-ylcarboxamido)phenyl)-1-oxoisoindolin-2-yl)-3-methylbutanoic acid]	++ (>50% Inhibition)
CC(C)[C@@H](C(=O)O)N1Cc2ccc(-c3ccc(NC(=O)c4ccc(-c5ccccc5)cc4)cc3C(F)(F)F)cc2C1=O [Example 426, (S)-2-(6-(4-Biphenyl-4-ylcarboxamido-2-(trifluoromethyl)phenyl)-1-oxoisoindolin-2-yl)-3-methylbutanoic acid]	+ (10-50% Inhibition)
CC(C)[C@@H](C(=O)O)N1Cc2ccc(-c3ccc(NC(=O)C4C5CC6CC(C5)CC4C6)cc3)cc2C1=O (stereo partly drawn) [Example 190, (S)-2-(6-(4-(Adamantyl-2-carboxamido)phenyl)-1-oxoisoindolin-2-yl)-3-methylbutanoic acid]	++ (>50% Inhibition)
Cc1cc(NC(=O)c2ccc(-c3ccccc3)cc2)ccc1-c1ccc2c(c1)C(=O)N([C@H](C(=O)O)C(C)C)C2 [Example 470, (S)-2-(6-(4-Biphenyl-4-ylcarboxamido-2-methylphenyl)-1-oxoisoindolin-2-yl)-3-methylbutanoic acid]	++ (>50% Inhibition)

Same assay, conditions: read-out: % Inhibition of hDGAT1

SMILES	inhibition at 1 µM [%]
CC(C)[C@@H](C(=O)O)N1Cc2ccc(-c3ccc(NC(=O)c4ccc(Oc5ccccc5)cc4)cc3)cc2C1=O [Example 150, (S)-3-Methyl-2-(1-oxo-6-(4-(4-phenoxybenzamido)phenyl)isoindolin-2-yl)butanoic acid]	> 50
CC(C)[C@@H](C(=O)O)N1Cc2ccc(-c3ccc(NC(=O)c4ccc(C(C)(C)C)cc4)cc3)cc2C1=O [Example 116, (S)-2-(6-(4-(4-tert-Butylbenzamido)phenyl)-1-oxoisoindolin-2-yl)-3-methyl butanoic acid]	> 50
CC(C)[C@@H](C(=O)O)N1Cc2ccc(-c3ccc(NC(=O)c4ccc(OC(F)(F)F)cc4)nn3)cc2C1=O [Example 502, (S)-3-Methyl-2-(1-oxo-6-(6-(4-(trifluoromethoxy)benzamido)pyridazin-3-yl)isoindolin-2-yl)butanoic acid]	> 50
CC(C)[C@@H](C(=O)O)N1Cc2ccc(-c3ccc(NC(=O)c4ccc5ccccc5c4)c(F)c3)cc2C1=O [Example 450, (S)-2-(6-(4-(2-Naphthamido)-3-fluorophenyl)-1-oxoisoindolin-2-yl)-3-methyl butanoic acid]	> 50
CC(C)[C@@H](C(=O)O)N1Cc2ccc(-c3ccc(NC(=O)Nc4cccc(C(F)(F)F)c4)cc3)cc2C1=O [Example 38, (S)-3-Methyl-2-(1-oxo-6-(4-(3-(3-(trifluoromethyl)phenyl)ureido)phenyl)isoindolin-2-yl)butanoic acid]	> 50
CCCCOc1ccc(C(=O)Nc2ccc(-c3ccc4c(c3)C(=O)N([C@H](C(=O)O)C(C)C)C4)nc2)cc1 [Example 412, (S)-2-(6-(5-(4-Butoxybenzamido)pyridin-2-yl)-1-oxoisoindolin-2-yl)-3-methylbutanoic acid]	> 50
CC(C)[C@@H](C(=O)O)N1Cc2ccc(-c3ccc(NC(=S)Nc4ccc(C#N)cc4)cc3)cc2C1=O [Example 68, (S)-2-(6-(4-(3-(4-Cyanophenyl)thioureido)phenyl)-1-oxoisoindolin-2-yl)-3-methyl butanoic acid]	> 50
O=C(Nc1ccc(-c2ccc3c(c2)C(=O)N(C2CCCC(C(=O)O)C2)C3)cc1)c1cccc(Cl)c1 (centres unmarked) [Example 547, 3-(6-(4-(3-Chlorobenzamido)phenyl)-1-oxoisoindolin-2-yl)cyclohexane carboxylic acid]	> 50
CC(C)[C@@H](C(=O)O)N1Cc2ccc(-c3ccc(NC(=O)c4c(F)cccc4C(F)(F)F)cc3)cc2C1=O [Example 126, (S)-2-(6-(4-(2-Fluoro-6-(trifluoromethyl)benzamido)phenyl)-1-oxoisoindolin-2-yl)-3-methylbutanoic acid]	10 to 50
CC(C)[C@@H](C(=O)O)N1Cc2ccc(-c3ccc(NC(=O)c4ccc(Cl)cc4)cc3)cc2C1=O [Example 114, (S)-2-(6-(4-(4-Chlorobenzamido)phenyl)-1-oxoisoindolin-2-yl)-3-methylbutanoic acid]	> 50
CC(C)[C@@H](C(=O)O)N1Cc2cc(-c3ccc(NS(=O)(=O)c4cccc(Cl)c4)cc3)ccc2C1=O [Example 295, (S)-2-(5-(4-(3-Chlorophenylsulfonamido)phenyl)-1-oxoisoindolin-2-yl)-3-methyl butanoic acid]	10 to 50
CC(C)[C@@H](C(=O)O)N1Cc2cc(-c3ccc(NS(=O)(=O)C4CCCCC4)cc3)ccc2C1=O [Example 303, (S)-2-(5-(4-(Cyclohexanesulfonamido)phenyl)-1-oxoisoindolin-2-yl)-3-methylbutanoic acid]	10 to 50
CC(C)[C@@H](C(=O)O)N1Cc2ccc(-c3ccc(NC(=O)c4ncc(-c5ccccc5)s4)cc3)cc2C1=O [Example 612, (S)-3-Methyl-2-(1-oxo-6-(4-(5-phenylthiazole-2-carboxamido)phenyl)isoindolin-2-yl)butanoic acid]	> 50
CC(C)[C@@H](C(=O)O)N1Cc2ccc(-c3ccc(NS(=O)(=O)c4ccc(C#N)cc4)cc3)cc2C1=O [Example 80, (S)-2-(6-(4-(4-Cyanophenylsulfonamido)phenyl)-1-oxoisoindolin-2-yl)-3-methyl butanoic acid]	10 to 50
COc1cccc(NC(=S)Nc2ccc(-c3ccc4c(c3)CN([C@H](C(=O)O)C(C)C)C4=O)cc2)c1 [Example 263, (S)-2-(5-(4-(3-(3-Methoxyphenyl)thioureido)phenyl)-1-oxoisoindolin-2-yl)-3-methyl butanoic acid]	10 to 50
CCCCc1ccc(C(=O)Nc2ccc(-c3ccc4c(c3)C(=O)N([C@H](C(=O)O)C(C)C)C4)cc2)nc1 [Example 649, (S)-2-(6-(4-(5-Butylpicolinamido)phenyl)-1-oxoisoindolin-2-yl)-3-methylbutanoic acid]	> 50
CC(C)[C@H](C(=O)O)N1Cc2cc(-c3ccc(NC(=O)Nc4cccc(C(F)(F)F)c4)cc3)ccc2C1=O [Example 361, (R)-3-Methyl-2-(1-oxo-5-(4-(3-(3-(trifluoromethyl)phenyl)ureido)phenyl)isoindolin-2-yl)butanoic acid]	10 to 50
CCc1ccc(C(=O)Nc2ccc(-c3ccc4c(c3)C(=O)N([C@H](C(=O)O)C(C)C)C4)cc2)cc1 [Example 168, (S)-2-(6-(4-(4-Ethylbenzamido)phenyl)-1-oxoisoindolin-2-yl)-3-methylbutanoic acid]	> 50
Cc1oc(-c2ccccc2)nc1C(=O)Nc1ccc(-c2ccc3c(c2)C(=O)N([C@H](C(=O)O)C(C)C)C3)cc1 [Example 643, (S)-3-Methyl-2-(6-(4-(5-methyl-2-phenyloxazole-4-carboxamido)phenyl)-1-oxoisoindolin-2-yl)butanoic acid]	> 50
COc1ccc(S(=O)(=O)Nc2ccc(-c3ccc4c(c3)CN([C@H](C(=O)O)C(C)C)C4=O)cc2)cc1 [Example 297, (S)-2-(5-(4-(4-Methoxyphenylsulfonamido)phenyl)-1-oxoisoindolin-2-yl)-3-methylbutanoic acid]	10 to 50
CC(C)[C@@H](C(=O)O)N1Cc2ccc(-c3ccc(NC(=O)Nc4ccc(C#N)cc4)cc3)cc2C1=O [Example 40, (S)-2-(6-(4-(3-(4-Cyanophenyl)ureido)phenyl)-1-oxoisoindolin-2-yl)-3-methyl butanoic acid]	> 50
COc1ccc(C(=O)Nc2ccc(-c3ccc4c(c3)C(=O)N([C@H](C(=O)O)C(C)C)C4)cc2)cc1 [Example 104, (S)-2-(6-(4-(4-Methoxybenzamido)phenyl)-1-oxoisoindolin-2-yl)-3-methyl butanoic acid]	> 50
CC(C)[C@@H](C(=O)O)N1Cc2cc(-c3ccc(NC(=S)Nc4cccc(C(F)(F)F)c4)cc3)ccc2C1=O [Example 283, (S)-3-Methyl-2-(1-oxo-5-(4-(3-(3-(trifluoromethyl)phenyl)thioureido)phenyl)isoindolin-2-yl)butanoic acid]	> 50
